The target in one assay is human DNMT3a/3l (Homo sapiens (Human), UniProt Q9Y6K1). In words: DNMT3a/3l breaklight assay. The class given is biochemical. Here is the method:
DNMT3a/3l Breakliqht Assay
DNMT3a/3l breaklight in vitro assays were conducted in a total volume of 50 μl in a standard 384 well format, using black non-binding surface microplates (Corning #3575). […] Negative control wells used 5 μl of DNMT3a/3l and 5 μl of oligonucleotide but also included 200 μM SAH. All reagents were made up in 1× assay buffer (20 mM Tris pH 7.4, 100 mM NaCl, 1.5 mM EDTA, 0.1 mM MgCl2, 1 mM CHAPS and 1 mM DTT). The reaction was incubated at 37° C. for 90 min and then stopped with the addition of 40 μl detection reagent. Detection reagent, made up in 1× Gla assay buffer (20 mM Tris pH 8.0, 80 mM NaCl, 0.75 mM MgCl2, 0.01% Triton X100 and 1 mM DTT) has a final concentration of 200 μM SAH (Sigma #A9384) and 0.0008 units/μl Gla1 restriction endonuclease (Sibenzyme #E494). Following addition of the detection reagent the plate was incubated in the dark at room temperature for 5 hr. Fluorescence intensity was then measured on the PHERAstar FS (BMG Labtech) at Ex 485 nm and Em 520 nm, with a gain of 400 and an integration time of 100 ms.

The next assay deals with DNMT1 (Homo sapiens, UniProt P26358). In words: DNMT1 biochemical activity, breaklight assay and/or SPA assay.
In the next assay the target is DNMT3B (Homo sapiens (Human), UniProt Q9UBC3). The assay is described as follows: DNMT3B breaklight assay. The class given is biochemical.
Assay [1] deals with erythroid progenitor cells (EPCs). In words: Fetal hemoglobin (HbF) ELISA in day 7 erythroid progenitor cells.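 Further: for fetal hemoglobin induction normalized to vehicle-treated cells.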 It is filed as cell-based, human. As to conditions: Homo sapiens, Erythroid progenitor cell, HbF ELISA, day 7 EPCs, 5 days; read-out: EPC ELISA (pEC50 category) (converted). The method, boiled down: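 Day 7 EPCs from human bone marrow CD34+ cells were plated at 1,000 cells/well in media with 3 U/mL rhEPO. They were exposed to a 22-point dilution ([…]) for 5 days at 37 °C. Lysate HbF was measured by sandwich ELISA (OD450) and normalized to DMSO control wells.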

Setting [2] is: read-out: DNMT3A Breaklight IC50.
Where [3] appears, read: binned activity in either the breaklight or the SPA assay, read-out: DNMT1 BioChemical (pIC50 category) (converted).
[4] abbreviates: read-out: DNMT3B Breaklight IC50.
Where [5] appears, read: breaklight assay and/or SPA assay, repeated experimental runs, read-out: average pIC50 against DNMT1 (converted).
[6] abbreviates: binned activity in either the breaklight or the SPA assay.
The mark [7] stands for this setting: repeated experimental runs, read-out: average IC50, DNMT3A breaklight assay.
[8] abbreviates: repeated experimental runs, read-out: average IC50, DNMT3B breaklight assay.

SMILES strings stand for the structures. Where two headings read alike, the source gives them in different places.

human DNMT3a/3l, sequence (Q9Y6K1 whole entry, looked up): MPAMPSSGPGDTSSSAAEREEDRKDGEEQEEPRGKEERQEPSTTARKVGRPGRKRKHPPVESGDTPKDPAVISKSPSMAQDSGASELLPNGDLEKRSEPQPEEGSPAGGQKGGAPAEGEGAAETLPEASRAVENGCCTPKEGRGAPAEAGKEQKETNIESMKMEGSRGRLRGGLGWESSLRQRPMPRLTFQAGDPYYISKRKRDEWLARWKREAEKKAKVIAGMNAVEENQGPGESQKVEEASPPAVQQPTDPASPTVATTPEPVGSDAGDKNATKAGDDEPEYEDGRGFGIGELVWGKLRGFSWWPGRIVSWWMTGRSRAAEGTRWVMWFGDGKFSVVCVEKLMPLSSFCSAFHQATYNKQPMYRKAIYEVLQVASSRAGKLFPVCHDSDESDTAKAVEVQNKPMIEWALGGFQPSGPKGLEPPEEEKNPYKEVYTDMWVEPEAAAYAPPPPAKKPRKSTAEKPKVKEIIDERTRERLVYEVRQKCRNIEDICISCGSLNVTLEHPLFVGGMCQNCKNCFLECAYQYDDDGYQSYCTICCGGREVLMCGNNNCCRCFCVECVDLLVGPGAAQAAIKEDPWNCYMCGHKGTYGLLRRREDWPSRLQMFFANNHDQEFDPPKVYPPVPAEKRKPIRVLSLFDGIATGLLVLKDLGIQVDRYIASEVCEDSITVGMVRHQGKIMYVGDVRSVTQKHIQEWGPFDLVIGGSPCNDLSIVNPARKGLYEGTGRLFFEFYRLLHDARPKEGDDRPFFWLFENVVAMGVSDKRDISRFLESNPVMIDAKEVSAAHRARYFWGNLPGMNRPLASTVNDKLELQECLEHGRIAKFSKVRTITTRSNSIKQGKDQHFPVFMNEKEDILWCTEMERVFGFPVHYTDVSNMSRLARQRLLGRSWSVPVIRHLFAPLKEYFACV
human DNMT3a/3l, sequence (Q9UJW3 whole entry partner, looked up): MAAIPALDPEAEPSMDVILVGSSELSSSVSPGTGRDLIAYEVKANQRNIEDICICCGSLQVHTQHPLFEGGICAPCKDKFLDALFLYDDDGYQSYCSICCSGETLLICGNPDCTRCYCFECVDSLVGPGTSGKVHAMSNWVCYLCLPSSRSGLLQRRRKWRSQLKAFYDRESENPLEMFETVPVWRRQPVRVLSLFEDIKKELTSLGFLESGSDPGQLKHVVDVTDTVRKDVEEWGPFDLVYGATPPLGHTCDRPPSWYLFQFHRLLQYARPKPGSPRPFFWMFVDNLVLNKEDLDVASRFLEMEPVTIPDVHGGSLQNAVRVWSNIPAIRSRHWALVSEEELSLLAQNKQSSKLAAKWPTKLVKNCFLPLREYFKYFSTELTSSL
DNMT1, sequence (P26358 whole entry, looked up): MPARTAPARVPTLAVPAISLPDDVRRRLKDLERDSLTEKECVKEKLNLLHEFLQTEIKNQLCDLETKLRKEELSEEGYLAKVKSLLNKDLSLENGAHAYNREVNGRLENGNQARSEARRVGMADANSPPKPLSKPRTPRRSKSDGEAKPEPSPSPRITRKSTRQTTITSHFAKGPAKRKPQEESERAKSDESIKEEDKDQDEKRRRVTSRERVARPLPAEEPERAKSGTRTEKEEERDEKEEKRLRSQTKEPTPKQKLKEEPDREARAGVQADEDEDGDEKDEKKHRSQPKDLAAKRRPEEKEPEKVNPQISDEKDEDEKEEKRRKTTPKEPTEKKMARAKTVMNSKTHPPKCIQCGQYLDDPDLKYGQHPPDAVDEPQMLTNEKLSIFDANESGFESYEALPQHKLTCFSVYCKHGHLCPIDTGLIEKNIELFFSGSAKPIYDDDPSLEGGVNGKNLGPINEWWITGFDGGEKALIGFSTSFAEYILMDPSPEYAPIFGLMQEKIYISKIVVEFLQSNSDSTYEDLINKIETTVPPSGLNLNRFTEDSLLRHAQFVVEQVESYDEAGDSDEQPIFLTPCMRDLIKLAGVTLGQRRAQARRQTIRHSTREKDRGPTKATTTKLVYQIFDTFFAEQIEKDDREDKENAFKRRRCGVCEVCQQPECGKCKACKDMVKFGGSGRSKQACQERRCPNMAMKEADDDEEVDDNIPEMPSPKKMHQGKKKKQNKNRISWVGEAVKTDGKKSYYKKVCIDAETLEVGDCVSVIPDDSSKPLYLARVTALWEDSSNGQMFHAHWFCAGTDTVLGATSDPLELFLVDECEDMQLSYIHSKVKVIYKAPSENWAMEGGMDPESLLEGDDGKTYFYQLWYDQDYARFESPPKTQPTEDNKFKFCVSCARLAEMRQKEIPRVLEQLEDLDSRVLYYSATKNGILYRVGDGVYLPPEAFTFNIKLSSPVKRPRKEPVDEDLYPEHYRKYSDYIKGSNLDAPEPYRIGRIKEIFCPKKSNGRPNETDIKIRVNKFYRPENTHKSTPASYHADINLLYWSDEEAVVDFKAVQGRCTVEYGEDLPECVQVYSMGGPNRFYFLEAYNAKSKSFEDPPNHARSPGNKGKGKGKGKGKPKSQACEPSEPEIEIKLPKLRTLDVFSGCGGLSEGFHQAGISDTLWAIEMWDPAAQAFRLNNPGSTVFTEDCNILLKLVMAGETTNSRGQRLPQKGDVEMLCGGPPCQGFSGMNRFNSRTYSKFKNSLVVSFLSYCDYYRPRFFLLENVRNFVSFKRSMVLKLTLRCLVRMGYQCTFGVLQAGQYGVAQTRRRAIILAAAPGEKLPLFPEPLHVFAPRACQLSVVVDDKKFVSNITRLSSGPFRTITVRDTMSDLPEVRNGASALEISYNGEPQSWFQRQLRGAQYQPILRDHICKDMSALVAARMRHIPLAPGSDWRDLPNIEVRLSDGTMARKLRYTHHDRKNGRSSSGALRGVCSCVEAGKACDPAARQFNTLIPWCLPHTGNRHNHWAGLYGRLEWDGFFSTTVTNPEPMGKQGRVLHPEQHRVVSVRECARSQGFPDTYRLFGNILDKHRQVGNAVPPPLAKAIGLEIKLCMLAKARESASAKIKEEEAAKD

As to `CCc1c(C#N)c(N)nc(SC(C(N)=O)c2ccccc2)c1C#N` (stereo not shown) [Example 1, 2-[(6-amino-3,5-dicyano-4-ethylpyridin-2-yl)sulfanyl]-2-phenylacetamide], the IC50 is 417 µM at human DNMT3a/3l (setting [2]), 1 to 31.6 µM on DNMT1 (setting [3]) and above 500 µM on DNMT3B (setting [4]). Further, in assay [1], the EC50 was above 31.6 µM.
As to `CCc1c(C#N)c(SC(C(N)=O)c2ccccc2)nc(N2CCNC(=O)C2)c1C#N` (stereo not shown) [Example 50, 2-((3,5-Dicyano-4-ethyl-6-(3-oxopiperazin-1-yl)pyridin-2-yl)thio)-2-phenylacetamide], the values for the IC50 at human DNMT3a/3l (setting [2]), on DNMT1 (setting [3]) and at DNMT3B (setting [4]) were above 500 µM, 0.316 to 1 µM and above 500 µM, respectively. The EC50 in assay [1] is below 0.316 µM.
As to `CCc1c(C#N)c(SC(C(N)=O)c2ccccc2)nc(N2CCN(C(C)=O)CC2)c1C#N` (stereo not shown) [Example 126, 2-((6-(4-Acetylpiperazin-1-yl)-3,5-dicyano-4-ethylpyridin-2-yl)thio)-2-phenylacetamide], the IC50 is above 500 µM at human DNMT3a/3l (setting [2]), 0.316 to 1 µM at DNMT1 (setting [3]), 0.316 to 1 µM on DNMT1 (setting [5]) and above 500 µM on DNMT3B (setting [4]). Moreover, the EC50 in assay [1] was below 0.316 µM.
For the molecule `CCc1c(C#N)c(SC(C(N)=O)c2ccccc2)nc(N2CCC(=O)CC2)c1C#N` (stereo not shown) [Example 59, 2-((3,5-dicyano-4-ethyl-6-(4-oxopiperidin-1-yl)pyridin-2-yl)thio)-2-phenylacetamide], the values for the IC50 at human DNMT3a/3l (setting [2]), on DNMT1 (setting [3]) and on DNMT3B (setting [4]) were above 500 µM, 0.316 to 1 µM and above 500 µM, respectively. Further, the EC50 in assay [1] is 0.316 to 1 µM.
Turning to `CCc1c(C#N)c(N)nc(S[C@@H](C(N)=O)c2ccccc2)c1C#N` [Example 2, (R)-[(6-amino-3,5-dicyano-4-ethylpyridin-2-yl)sulfanyl]-2-phenylacetamide], the IC50 at human DNMT3a/3l (setting [2]) is above 500 µM; at DNMT1 (setting [3]), 0.316 to 1 µM; at DNMT3B (setting [4]) it was above 500 µM. The EC50 in assay [1] was above 31.6 µM.
For the molecule `CCc1c(C#N)c(SC(C(N)=O)c2ccccc2)nc(N(C)CCOC)c1C#N` (stereo not shown) [Example 53, 2-((3,5-Dicyano-4-ethyl-6-((2-methoxyethyl)(methyl)amino)pyridin-2-yl)thio)-2-phenylacetamide], the IC50 was above 500 µM at human DNMT3a/3l (setting [2]), 1 to 31.6 µM on DNMT1 (setting [3]) and above 500 µM on DNMT3B (setting [4]). Moreover, the EC50 in assay [1] is 1 to 31.6 µM.
As for `CCc1c(C#N)c(SC(C(N)=O)c2ccccc2)nc(N2CCCNCC2)c1C#N` (stereo not shown) [Example 112, 2-{[3,5-Dicyano-6-(1,4-diazepan-1-yl)-4-ethylpyridin-2-yl]sulfanyl}-2-phenylacetamide], the IC50 at human DNMT3a/3l (setting [2]) and at DNMT3B (setting [4]) was above 500 µM each time. At DNMT1 (setting [6]), the “DNMT1 BioChemical (pIC50 category)” value is listed as “D (Category D: ≥6.5)”. Besides, in assay [1], the EC50 was below 0.316 µM.
Take `CCc1c(C#N)c(SC(C(N)=O)c2ccccc2)nc(N2CCC(C)(N)CC2)c1C#N` (stereo not shown) [Example 136, 2-((6-(4-Amino-4-methylpiperidin-1-yl)-3,5-dicyano-4-ethylpyridin-2-yl)thio)-2-phenylacetamide]: the IC50 was above 500 µM at human DNMT3a/3l (setting [2]) and 379 µM on DNMT3B (setting [4]). For the same molecule, the “DNMT1 BioChemical (pIC50 category)” value on DNMT1 (setting [6]) is “D (Category D: ≥6.5)”. In addition, the “average pIC50 against DNMT1” value at DNMT1 (breaklight assay and/or SPA assay, repeated experimental runs) was above 6.5. The EC50 in assay [1] was below 0.316 µM.
As to `CCc1c(C#N)c(SC(C(N)=O)c2ccccc2)nc(N2CCC(N3CCNC3=O)CC2)c1C#N` (stereo not shown) [Example 47, 2-((3,5-Dicyano-4-ethyl-6-(4-(2-oxoimidazolidin-1-yl)piperidin-1-yl)pyridin-2-yl)thio)-2-phenylacetamide], the IC50 at human DNMT3a/3l (setting [2]) was above 500 µM; at human DNMT3a/3l (setting [7]) it was above 500 µM; on DNMT1 (setting [3]), 0.316 to 1 µM; on DNMT3B (setting [4]) it was above 500 µM; on DNMT3B (setting [8]) it was above 500 µM. The EC50 in assay [1] was 0.316 to 1 µM.
With `CCc1c(C#N)c(SC(C(N)=O)c2ccccc2)nc(N2CCC3(CCCN(C)C3)CC2)c1C#N` (stereo not shown) [Example 118, 2-((3,5-Dicyano-4-ethyl-6-(2-methyl-2,9-diazaspiro[5.5]undecan-9-yl)pyridin-2-yl)thio)-2-phenylacetamide], the figures for the IC50 at human DNMT3a/3l (setting [2]) and at DNMT3B (setting [4]) were above 500 µM and 124 µM, respectively. In addition, the “DNMT1 BioChemical (pIC50 category)” value on DNMT1 (setting [6]) was “D (Category D: ≥6.5)”. Besides, in assay [1], the EC50 was below 0.316 µM.
For `CCc1c(C#N)c(SC(C(N)=O)c2ccccc2)nc(N2CCN(CCO)CC2)c1C#N` (stereo not shown) [Example 129, 2-((3,5-Dicyano-4-ethyl-6-(4-(2-hydroxyethyl)piperazin-1-yl)pyridin-2-yl)thio)-2-phenylacetamide], the IC50 at human DNMT3a/3l (setting [2]) is above 500 µM; at DNMT1 (setting [3]) it was 0.316 to 1 µM; on DNMT1 (setting [5]), at least 1 µM; at DNMT3B (setting [4]), above 500 µM. Besides, in assay [1], the EC50 is 1 to 31.6 µM.
For `CCc1c(C#N)c(SC(C(N)=O)c2ccccc2)nc(N2CCCN(CCOC)CC2)c1C#N` (stereo not shown) [Example 106, 2-({3,5-Dicyano-4-ethyl-6-[4-(2-methoxyethyl)-1,4-diazepan-1-yl]pyridin-2-yl}sulfanyl)-2-phenylacetamide], the IC50 at human DNMT3a/3l (setting [2]) and at DNMT3B (setting [4]) was above 500 µM throughout. Besides, the “DNMT1 BioChemical (pIC50 category)” value at DNMT1 (setting [6]) is reported as “D (Category D: ≥6.5)”. Also, in assay [1], the EC50 was below 0.316 µM.
For the molecule `CCc1c(C#N)c(SC(C(N)=O)c2ccccc2)nc(N2CCCN(CC(C)O)CC2)c1C#N` (stereo not shown) [Example 107, 2-((3,5-dicyano-4-ethyl-6-(4-(2-hydroxypropyl)-1,4-diazepan-1-yl)pyridin-2-yl)thio)-2-phenylacetamide], the IC50 on human DNMT3a/3l (setting [2]) and on DNMT3B (setting [4]) was above 500 µM each time. Moreover, the “DNMT1 BioChemical (pIC50 category)” value on DNMT1 (setting [6]) is recorded as “D (Category D: ≥6.5)”. For the same molecule, in assay [1], the EC50 is below 0.316 µM.
As to `CN(C)c1nc(SC(C(N)=O)c2ccccc2)c(C#N)c(C2CC2)c1C#N` (stereo not shown) [Example 127, 2-((3,5-Dicyano-4-cyclopropyl-6-(dimethylamino)pyridin-2-yl)thio)-2-phenylacetamide], the IC50 on human DNMT3a/3l (setting [2]) and on DNMT3B (setting [4]) was above 500 µM in each case. For the same molecule, the “DNMT1 BioChemical (pIC50 category)” value on DNMT1 (setting [6]) was “D (Category D: ≥6.5)”. Moreover, the EC50 in assay [1] was 0.316 to 1 µM.
As for `CCc1c(C#N)c(SC(C(N)=O)c2ccc(Cl)cc2)nc(N(C)C)c1C#N` (stereo not shown) [Example 128, 2-(4-Chlorophenyl)-2-((3,5-dicyano-6-(dimethylamino)-4-ethylpyridin-2-yl)thio)acetamide], the values for the IC50 at human DNMT3a/3l (setting [2]), at DNMT1 (setting [3]) and on DNMT3B (setting [4]) were above 500 µM, 0.316 to 1 µM and above 500 µM, respectively. In assay [1], the EC50 is 0.316 to 1 µM.
As for `CCc1c(C#N)c(NC)nc(SC(C(N)=O)c2ccccc2)c1C#N` (stereo not shown) [Example 52, 2-((3,5-Dicyano-4-ethyl-6-(methylamino)pyridin-2-yl)thio)-2-phenylacetamide], the IC50 is above 500 µM on human DNMT3a/3l (setting [2]); above 500 µM at human DNMT3a/3l (setting [7]); 0.316 to 1 µM on DNMT1 (setting [3]); above 500 µM at DNMT3B (setting [4]); above 500 µM on DNMT3B (setting [8]). The EC50 in assay [1] is 1 to 31.6 µM.
In the case of `N#Cc1c(N)nc(SC(C(N)=O)c2ccccc2)c(C#N)c1C1CC1` (stereo not shown) [Example 51, 2-[(6-amino-3,5-dicyano-4-cyclopropyl-2-pyridyl)sulfanyl]-2-phenyl-acetamide], the IC50 is above 500 µM on human DNMT3a/3l (setting [2]), 0.316 to 1 µM at DNMT1 (setting [3]) and above 500 µM on DNMT3B (setting [4]). Further, the EC50 in assay [1] is above 31.6 µM.
Turning to `CCc1c(C#N)c(SC(C(N)=O)c2ccccc2)nc(N2CCCN(CC)CC2)c1C#N` (stereo not shown) [Example 7, 2-{[3,5-dicyano-4-ethyl-6-(4-ethyl-1,4-diazepan-1-yl)pyridin-2-yl]sulfanyl}-2-phenylacetamide], the IC50 at human DNMT3a/3l (setting [2]), on human DNMT3a/3l (setting [7]), at DNMT3B (setting [4]) and on DNMT3B (setting [8]) was above 500 µM in each case. At DNMT1 (setting [6]), the “DNMT1 BioChemical (pIC50 category)” value was “D (Category D: ≥6.5)”. Further, in assay [1], the EC50 is below 0.316 µM.
For `CCCN1CCCN(c2nc(SC(C(N)=O)c3ccccc3)c(C#N)c(CC)c2C#N)CC1` (stereo not shown) [Example 6, 2-((3,5-dicyano-4-ethyl-6-(4-propyl-1,4-diazepan-1-yl)pyridin-2-yl)thio)-2-phenylacetamide], the IC50 on human DNMT3a/3l (setting [2]), on human DNMT3a/3l (setting [7]), on DNMT3B (setting [4]) and on DNMT3B (setting [8]) was above 500 µM throughout. Also, at DNMT1 (setting [6]), the “DNMT1 BioChemical (pIC50 category)” value was “D (Category D: ≥6.5)”. Also, in assay [1], the EC50 is below 0.316 µM.
As to `CCc1c(C#N)c(SC(C(N)=O)c2ccccc2)nc(N2CC[C@H](O)C2)c1C#N` (stereo partly drawn) [Example 49, 2-((3,5-Dicyano-4-ethyl-6-((S)-3-hydroxypyrrolidin-1-yl)pyridin-2-yl)thio)-2-phenylacetamide], the IC50 on human DNMT3a/3l (setting [2]) and at DNMT3B (setting [4]) was above 500 µM each time. In addition, on DNMT1 (setting [6]), the “DNMT1 BioChemical (pIC50 category)” value is “D (Category D: ≥6.5)”. For the same molecule, in assay [1], the EC50 is 0.316 to 1 µM.

(Values after patent US10975056B2 (GlaxoSmithKline Intellectual Property Development Limited, priority 2016, dated 2021).)
